Assay [1] concerns the target T1, ULK3 (Homo sapiens, UniProt Q6PHR2).
T1 sequence (Q6PHR2 1-472): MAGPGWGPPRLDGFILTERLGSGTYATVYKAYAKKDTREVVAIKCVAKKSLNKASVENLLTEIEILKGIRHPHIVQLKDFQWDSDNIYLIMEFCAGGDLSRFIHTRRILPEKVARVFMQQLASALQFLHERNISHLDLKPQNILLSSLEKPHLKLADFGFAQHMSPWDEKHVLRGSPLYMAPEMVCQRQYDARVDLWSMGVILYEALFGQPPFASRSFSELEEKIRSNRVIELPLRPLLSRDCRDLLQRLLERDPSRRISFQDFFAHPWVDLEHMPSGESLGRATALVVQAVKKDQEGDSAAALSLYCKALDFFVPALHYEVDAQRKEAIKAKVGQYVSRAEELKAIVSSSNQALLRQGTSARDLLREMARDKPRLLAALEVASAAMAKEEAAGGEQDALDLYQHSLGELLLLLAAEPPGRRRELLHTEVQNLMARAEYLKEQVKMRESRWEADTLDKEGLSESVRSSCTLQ
In words: in vitro kinase assay (ULK3 autophosphorylation, […] ATP); Ki calculated from IC50 […]. Details: bacterially expressed and purified His-tagged ULK3 protein. Format: biochemical.

Assay [2] has as its target T1, ULK3.

Structures are written as SMILES.

As to `Cc1[nH]c(/C=C2\C(=O)Nc3ccccc32)c(C)c1CCC(=O)O` [SU6668, (Z)-5-[(1,2-dihydro-2-oxo-3H-indol-3-ylidene)methyl]-2,4-dimethyl-1H-pyrrole-3-propanoic acid], the Ki at ULK3 [1] was approximately 200 nM. As to `Nc1ncnc2c1ncn2[C@@H]1O[C@H](COP(=O)(O)OP(=O)(O)OP(=O)(O)O)[C@@H](O)[C@H]1O` [ATP], the Km at ULK3 [2] came out at 3.2 µM.

The record behind these values is PMC3946003, “Protein kinase inhibitor SU6668 attenuates positive regulation of Gli proteins in cancer and multipotent progenitor cells” (Biochimica et Biophysica Acta, 2014).
